Assay results from ChEMBL document CHEMBL1147193, “New 5-substituted thiazolo[3,2-b][1,2,4]triazol-6-ones: synthesis and anticancer evaluation” (2007).

Assays:
Format in all cases: functional
[1] = test system: TK-10; test: Growth inhibition of human TK10 cells after 48 hrs by SRB protein assay; settings: TK-10, 48 h
[2] = test system: MOLT-4; test: Growth inhibition of human MOLT4 cells after 48 hrs by SRB protein assay; settings: MOLT-4, 48 h
[3] = test system: RXF 393; test: Growth inhibition of human RXF393 cells after 48 hrs by SRB protein assay; settings: RXF 393, 48 h
[4] = test system: NCI-H460; test: Growth inhibition of human NCI-H460 cells after 48 hrs by SRB protein assay; settings: NCI-H460, 48 h
[5] = test system: BT-549; test: Growth inhibition of human BT549 cells after 48 hrs by SRB protein assay; settings: BT-549, 48 h
[6] = test system: OVCAR-5; test: Growth inhibition of human OVCAR5 cells after 48 hrs by SRB protein assay; settings: OVCAR-5, 48 h
[7] = test system: ACHN; test: Growth inhibition of human ACHN cells after 48 hrs by SRB protein assay
[8] = test system: SF-268; test: Anticancer activity against human SF268 cells assessed as growth of cells at 100 uM relative to untreated cells
[9] = test system: UACC-62; test: Growth inhibition of human UACC62 cells after 48 hrs by SRB protein assay; settings: UACC-62, 48 h
[10] = test system: HCT-15; test: Growth inhibition of human HCT15 cells after 48 hrs by SRB protein assay; settings: HCT-15, 48 h
[11] = test system: CAKI-1; test: Growth inhibition of human CAKI1 cells after 48 hrs by SRB protein assay; settings: CAKI-1, 48 h
[12] = test system: HOP-62; test: Growth inhibition of human HOP62 cells after 48 hrs by SRB protein assay; settings: HOP-62, 48 h
[13] = test system: NCI-H226; test: Growth inhibition of human NCI-H226 cells after 48 hrs by SRB protein assay; settings: NCI-H226, 48 h
[14] = test system: SK-MEL-28; test: Growth inhibition of human SK-MEL-28 cells after 48 hrs by SRB protein assay; settings: SK-MEL-28, 48 h
[15] = test system: K562; test: Growth inhibition of human K562 cells after 48 hrs by SRB protein assay; settings: K562, 48 h
[16] = test system: HT-29; test: Growth inhibition of human HT29 cells after 48 hrs by SRB protein assay; settings: HT-29, 48 h
[17] = test system: HCT-116; test: Growth inhibition of human HCT116 cells after 48 hrs by SRB protein assay; settings: HCT-116, 48 h
[18] = test system: HOP-92; test: Growth inhibition of human HOP92 cells after 48 hrs by SRB protein assay; settings: HOP-92, 48 h
[19] = test system: SK-MEL-5; test: Growth inhibition of human SK-MEL-5 cells after 48 hrs by SRB protein assay; settings: SK-MEL-5, 48 h
[20] = test system: RPMI-8226; test: Growth inhibition of human RPMI8226 cells after 48 hrs by SRB protein assay; settings: RPMI-8226, 48 h
[21] = test system: NCI-H322M; test: Growth inhibition of human NCI-H322M cells after 48 hrs by SRB protein assay
[22] = test system: NCI-H460; test: Anticancer activity against human NCI-H460 cells assessed as growth of cells at 100 uM relative to untreated cells
[23] = test system: MCF7; test: Growth inhibition of human MCF7 cells after 48 hrs by SRB protein assay; settings: MCF7, 48 h
[24] = test system: OVCAR-8; test: Growth inhibition of human OVCAR8 cells after 48 hrs by SRB protein assay; settings: OVCAR-8, 48 h
[25] = test system: CCRF-CEM; test: Growth inhibition of human CCRF-CEM cells after 48 hrs by SRB protein assay
[26] = test system: U-251; test: Growth inhibition of human U251 cells after 48 hrs by SRB protein assay; settings: U-251, 48 h
[27] = test system: M14; test: Growth inhibition of human M14 cells after 48 hrs by SRB protein assay; settings: M14, 48 h
[28] = test system: EKVX; test: Growth inhibition of human EKVX cells after 48 hrs by SRB protein assay
[29] = test system: OVCAR-3; test: Growth inhibition of human OVCAR-3 cells after 48 hrs by SRB protein assay; settings: OVCAR-3, 48 h
[30] = test system: HCC 2998; test: Growth inhibition of human HCC2998 cells after 48 hrs by SRB protein assay; settings: HCC 2998, 48 h
[31] = test system: MCF7; test: Anticancer activity against human MCF7 cells assessed as growth of cells at 100 uM relative to untreated cells
[32] = test system: Hs-578T; test: Growth inhibition of human HS578T cells after 48 hrs by SRB protein assay
[33] = test system: UACC-257; test: Growth inhibition of human UACC257 cells after 48 hrs by SRB protein assay; settings: UACC-257, 48 h
[34] = test system: T47D; test: Growth inhibition of human T47D cells after 48 hrs by SRB protein assay
[35] = test system: MDA-MB-435; test: Growth inhibition of human MDA-MB-435 cells after 48 hrs by SRB protein assay; settings: MDA-MB-435, 48 h

CCOC(=O)c1ccc(NC(=O)CC2Sc3ncnn3C2=O)cc1 (configuration not stated)
GI50 [1]: 22.9 µM | TGI ([1]; read-out: Log TGI (converted)): 55 µM | GI50 [2]: 33.9 µM | TGI ([2]; read-out: Log TGI (converted)): 66.1 µM | GI50 [3]: 21.4 µM | TGI ([3]; read-out: Log TGI (converted)): 67.6 µM | GI50 [4]: > 100 µM | TGI ([4]; read-out: Log TGI (converted)): > 100 µM | GI50 [5]: 21.9 µM | TGI ([5]; read-out: Log TGI (converted)): 43.7 µM | GI50 [6]: 17 µM | TGI ([6]; read-out: Log TGI (converted)): 31.6 µM | GI50 [7]: 17.4 µM | TGI ([7]; read-out: Log TGI (converted)): 31.6 µM | Activity [8]: 8% | GI50 [9]: 40.7 µM | TGI ([9]; read-out: Log TGI (converted)): > 100 µM | GI50 [10]: 20.9 µM | TGI ([10]; read-out: Log TGI (converted)): 52.5 µM | GI50 [11]: 63.1 µM | TGI ([11]; read-out: Log TGI (converted)): > 100 µM | GI50 [12]: 21.4 µM | TGI ([12]; read-out: Log TGI (converted)): 47.9 µM | GI50 [13]: 26.3 µM | TGI ([13]; read-out: Log TGI (converted)): 66.1 µM | GI50 [14]: 91.2 µM | TGI ([14]; read-out: Log TGI (converted)): > 100 µM | GI50 [15]: 95.5 µM | TGI ([15]; read-out: Log TGI (converted)): > 100 µM | GI50 [16]: 43.7 µM | TGI ([16]; read-out: Log TGI (converted)): > 100 µM | GI50 [17]: 15.8 µM | TGI ([17]; read-out: Log TGI (converted)): 29.5 µM | GI50 [18]: 19.5 µM | TGI ([18]; read-out: Log TGI (converted)): 47.9 µM | GI50 [19]: > 100 µM | TGI ([19]; read-out: Log TGI (converted)): > 100 µM | GI50 [20]: 4.57 µM | TGI ([20]; read-out: Log TGI (converted)): 9.77 µM | GI50 [21]: > 100 µM | TGI ([21]; read-out: Log TGI (converted)): > 100 µM | Activity [22]: 0% | GI50 [23]: 38.9 µM | TGI ([23]; read-out: Log TGI (converted)): > 100 µM | GI50 [24]: > 100 µM | TGI ([24]; read-out: Log TGI (converted)): > 100 µM | GI50 [25]: 24.5 µM | TGI ([25]; read-out: Log TGI (converted)): 77.6 µM | GI50 [26]: > 100 µM | TGI ([26]; read-out: Log TGI (converted)): > 100 µM | GI50 [27]: 18.6 µM | TGI ([27]; read-out: Log TGI (converted)): 34.7 µM | GI50 [28]: 28.2 µM | TGI ([28]; read-out: Log TGI (converted)): 69.2 µM | GI50 [29]: 45.7 µM | TGI ([29]; read-out: Log TGI (converted)): > 100 µM | GI50 [30]: 18.2 µM | TGI ([30]; read-out: Log TGI (converted)): 32.4 µM | Activity [31]: 0% | GI50 [32]: > 100 µM | TGI ([32]; read-out: Log TGI (converted)): > 100 µM | GI50 [33]: 87.1 µM | TGI ([33]; read-out: Log TGI (converted)): > 100 µM | GI50 [34]: 23.4 µM | TGI ([34]; read-out: Log TGI (converted)): 57.5 µM | GI50 [35]: > 100 µM | TGI ([35]; read-out: Log TGI (converted)): > 100 µM
